# Experimental data published in patent US9744175B2, “Compositions of combinations of non-covalent DNA binding agents and anti-cancer and/or anti-inflammatory agents and their use in disease treatment” (INDUS PHARMACEUTICALS, INC., priority 2012, dated 2017).
# How the values were obtained:
# HCT116 (mlh−) = assay: siRNA inhibition of p53 and REV functions, alamar blue growth inhibition; type: cell-based, human
# Procedure: (§1) siRNA specific for different genes is purchased from Dharmacon (Thermo. Fisher Scientific Dharmacon Products, Lafayette, Colo. 80026) and the protocol recommended by the supplier is utilized. Confluent cells are trypsinized and 5000 cells are seeded in a well in the presence or absence of siRNA in 100 μL medium. The cells are incubated with siRNA for two days. A non-covalent DNA binding agent of the invention is added in a 10 μL volume and incubated for another 48 hours. After treatment with the agent, the medium is replaced with 1% alamar blue containing medium to measure fluorescence after two hours.
# as §1, with “from Dharmacon (Thermo Fisher Scientific” for “from Dharmacon (Thermo. Fisher Scientific”, “two hours. […] The results are presented in FIGS. 14-18 (SEQ ID NO:3-12, respectively) and Table 7.” for “two hours.”
# U2OS Wild type = assay: siRNA inhibition of MMR, p53 and REV functions, alamar blue growth inhibition; type: cell-based, human
# Procedure: as §1
# as §1, with “from Dharmacon (Thermo Fisher Scientific” for “from Dharmacon (Thermo. Fisher Scientific”, “two hours. […] The results are presented in FIGS. 14-18 (SEQ ID NO:3-12, respectively) and Table 7.” for “two hours.”
# yeast rad1 mutation = assay: Alamar Blue cell survival assay in yeast cells; type: cell-based
# Procedure: (§2) The cells are diluted 100-fold in yeast complete medium. 100 μL of diluted cells are seeded in 96 well plates with or without a non-covalent DNA binding compound and incubated for 24 hours at 30° C. The following day, an equal volume of yeast complete medium containing 1% alamar blue is added and incubated at 30° C. for two hours. Fluorescence intensity is measured in a fluorescent reader to calculate the inhibition effect of non-covalent DNA binding agents in mutant and wild type yeast cells.
# (§3) Yeast cells that carry mutations in different genes involved in homologous recombination (rad 50, rad51, rad52, and rad57) and nucleotide excision/double strand repair (rad1) are grown to stationary culture overnight.
# yeast rad50 mutation = assay: Alamar Blue cell survival assay in yeast cells; type: cell-based
# Procedure: as §2, §3
# Wild type yeast = assay: Alamar Blue cell survival assay in yeast cells; type: cell-based
# Procedure: as §2, §3
# yeast rad51 mutation = assay: Alamar Blue cell survival assay in yeast cells; type: cell-based
# Procedure: as §2, §3
# yeast rad52 mutation = assay: Alamar Blue cell survival assay in yeast cells; type: cell-based
# Procedure: as §2, §3
compound,measurement,setting,value
"CC[C@@]1(O)C(=O)OCc2c1cc1n(c2=O)Cc2cc3ccccc3nc2-1 [Camptothecin, (S)-4-ethyl-4-hydroxy-1H-pyrano[3′,4′:6,7]indolizino[1,2-b]quinoline-3,14-(4H,12H)-dione, reference compound]",IC50,"HCT116 (mlh−); Homo sapiens, HCT-116, no siRNA knock out, read-out: IC50, Control",0.25 µM
same,"Fold improvement in IC50, p53",HCT116 (mlh−); p53 siRNA vs control,1.3 fold
same,"Fold improvement in IC50, rev",HCT116 (mlh−); rev siRNA vs control,1.7 fold
"COc1cccc2c1C(=O)c1c(O)c3c(c(O)c1C2=O)C[C@@](O)(C(=O)CO)C[C@@H]3OC1CC(N)C(O)C(C)O1 (stereo partly drawn) [Doxorubicin, (8S,10S)-10-(4-amino-5-hydroxy-6-methyl-tetrahydro-2H-pyran-2-yloxy)-6,8,11-trihydroxy-8-(2-hydroxyacetyl)-1-methoxy-7,8,9,10-tetrahydrotetracene-5,12-dione, reference compound]",IC50,"U2OS Wild type; Homo sapiens, no siRNA knock out, read-out: IC50, Control",0.7 µM
same,"Fold improvement in IC50, mlh1",U2OS Wild type; mlh1 siRNA vs control,0.23 fold
same,"Fold improvement in IC50, p53",U2OS Wild type; p53 siRNA vs control,0.7 fold
same,"Fold improvement in IC50, rev",U2OS Wild type; rev siRNA vs control,0.35 fold
COc1cc2c(cc1OCCCCOc1cc(-c3ccc(F)cc3)nc(C)n1)N=C[C@@H]1CCCN1C2=O [NSC 723732],IC50,yeast rad1 mutation,> 250 µM
same,IC50,yeast rad50 mutation,> 250 µM
same,IC50,Wild type yeast,> 250 µM
same,IC50,yeast rad51 mutation,100 µM
same,IC50,yeast rad52 mutation,105 µM
